Results: ChEMBL document CHEMBL3885861, “Open TG-GATES”

Organism: Rattus norvegicus
Experiment: Open TG-GATES - Regimen: Daily Repeat
Type: toxicity, organism-based, Sprague-Dawley
Parameters: regimen Daily Repeat, gender Male, age 6 weeks
Settings: in vivo, po, route gavage; for TP / gamma-GTP / ALP / ALT / AST / BUN / CRE / Ca / Cl / DBIL / GLC / IP / K / LDH / Na / PL / RALB / TBIL / TC / TG: tissue Plasma; for APTT / Bas / Eos / Fbg / Hb / Ht / Lym / MCH / MCV / Mono / Neu / PT / Plat / RBC / Ret / WBC / MCHC: tissue Blood; for KIDNEY_L / KIDNEY_R / KIDNEY_TOTAL: tissue Kidney; for LIVER: tissue Liver
[1] = 100 mg/kg, […], dose level Low, time 28 day
[2] = 300 mg/kg, 72 h, dose level Middle, time 3 day
[3] = 300 mg/kg, […], dose level Middle, time 7 day
[4] = 300 mg/kg, […], dose level Middle, time 14 day
[5] = 300 mg/kg, […], dose level Middle, time 28 day
[6] = 1000 mg/kg, 72 h, dose level High, time 3 day
[7] = 1000 mg/kg, […], dose level High, time 7 day
[8] = 1000 mg/kg, […], dose level High, time 14 day
[9] = 1000 mg/kg, […], dose level High, time 28 day

CCOc1ccc(NC(C)=O)cc1 [PHENACETIN]
TP [1]: 6.4 g/dL
gamma-GTP [1]: 1 IU/L
TERMINAL_BW [2]: 224.3 g
APTT [2]: 21.5 s
Bas [2]: 0%
Eos [2]: 1.2%
Fbg [2]: 290.8 mg/dL
Hb [2]: 13.5 g/dL
Ht [2]: 40.7%
Lym [2]: 75.2%
MCH [2]: 19.9 pg
MCV [2]: 60.1 fL
Mono [2]: 3.4%
Neu [2]: 19.4%
PT [2]: 13.4 s
Plat [2]: 119.3 x10_4/uL
RBC [2]: 678.8 x10_4/ul
Ret [2]: 4.8%
WBC [2]: 98.2 x10_2/uL
KIDNEY_L [2]: 1 g
KIDNEY_R [2]: 1 g
KIDNEY_TOTAL [2]: 2 g
LIVER [2]: 11.1 g
ALP [2]: 1609.6 IU/L
ALT [2]: 39.2 IU/L
AST [2]: 66.2 IU/L
BUN [2]: 13 mg/dL
CRE [2]: 0.2 mg/dL
Ca [2]: 11.1 mg/dL
Cl [2]: 104.8 meq/L
DBIL [2]: 0.01 mg/dL
GLC [2]: 166 mg/dL
IP [2]: 6.9 mg/dL
K [2]: 4 meq/L
LDH [2]: 69.4 IU/L
Na [2]: 143.2 meq/L
PL [2]: 174.4 mg/dL
RALB [2]: 2.7 g/dL
TBIL [2]: 0.044 mg/dL
TC [2]: 80.4 mg/dL
TG [2]: 145.4 mg/dL
TP [2]: 5.7 g/dL
gamma-GTP [2]: 1 IU/L
TERMINAL_BW [3]: 262.8 g
TERMINAL_BW [4]: 306 g
TERMINAL_BW [5]: 397.8 g
APTT [3]: 17.4 s
Bas [3]: 0%
Eos [3]: 1%
Fbg [3]: 302.6 mg/dL
Hb [3]: 13.3 g/dL
Ht [3]: 40.1%
Lym [3]: 71.8%
MCH [3]: 20 pg
MCV [3]: 60.2 fL
Mono [3]: 2.8%
Neu [3]: 24.2%
PT [3]: 13.3 s
Plat [3]: 122.3 x10_4/uL
RBC [3]: 666.2 x10_4/ul
Ret [3]: 6.7%
WBC [3]: 103.2 x10_2/uL
Bas [4]: 0.2%
Eos [4]: 1%
Fbg [4]: 273.2 mg/dL
Lym [4]: 74.4%
MCH [4]: 19.9 pg
MCHC [4]: 33.5%
MCV [4]: 59.3 fL
Mono [4]: 2.2%
Neu [4]: 21.8%
PT [4]: 13.1 s
Plat [4]: 125.2 x10_4/uL
RBC [4]: 696.6 x10_4/ul
Ret [4]: 6.5%
WBC [4]: 128 x10_2/uL
APTT [5]: 21.1 s
Bas [5]: 0.2%
Eos [5]: 1.2%
Fbg [5]: 262.4 mg/dL
Hb [5]: 14.4 g/dL
Ht [5]: 42.5%
Lym [5]: 76.4%
MCH [5]: 19.1 pg
MCHC [5]: 33.8%
MCV [5]: 56.4 fL
Mono [5]: 1.8%
PT [5]: 13.7 s
Plat [5]: 103.8 x10_4/uL
RBC [5]: 754.2 x10_4/ul
Ret [5]: 4.9%
WBC [5]: 159.4 x10_2/uL
KIDNEY_L [3]: 1.2 g
KIDNEY_R [3]: 1.1 g
KIDNEY_TOTAL [3]: 2.3 g
KIDNEY_L [4]: 1.2 g
KIDNEY_R [4]: 1.2 g
KIDNEY_TOTAL [4]: 2.5 g
KIDNEY_L [5]: 1.4 g
KIDNEY_R [5]: 1.4 g
KIDNEY_TOTAL [5]: 2.9 g
LIVER [4]: 12.6 g
ALP [3]: 1712.6 IU/L
ALT [3]: 39.4 IU/L
AST [3]: 64.6 IU/L
CRE [3]: 0.2 mg/dL
Ca [3]: 11 mg/dL
Cl [3]: 104.2 meq/L
DBIL [3]: 0.008 mg/dL
GLC [3]: 177.8 mg/dL
IP [3]: 6.9 mg/dL
K [3]: 4.3 meq/L
LDH [3]: 79.4 IU/L
PL [3]: 174.4 mg/dL
RALB [3]: 2.7 g/dL
TBIL [3]: 0.048 mg/dL
TC [3]: 81.6 mg/dL
TG [3]: 149 mg/dL
TP [3]: 5.9 g/dL
gamma-GTP [3]: 1.4 IU/L
ALP [4]: 1577.4 IU/L
ALT [4]: 37.2 IU/L
AST [4]: 63 IU/L
BUN [4]: 14.2 mg/dL
CRE [4]: 0.2 mg/dL
Ca [4]: 10.7 mg/dL
DBIL [4]: 0.02 mg/dL
GLC [4]: 181.8 mg/dL
IP [4]: 6.3 mg/dL
K [4]: 4.3 meq/L
LDH [4]: 159.2 IU/L
Na [4]: 144.2 meq/L
PL [4]: 162.2 mg/dL
RALB [4]: 2.7 g/dL
TBIL [4]: 0.086 mg/dL
TC [4]: 78.4 mg/dL
TG [4]: 91.2 mg/dL
TP [4]: 5.9 g/dL
gamma-GTP [4]: 1 IU/L
ALP [5]: 1081 IU/L
ALT [5]: 40 IU/L
AST [5]: 63 IU/L
BUN [5]: 14.4 mg/dL
CRE [5]: 0.3 mg/dL
Cl [5]: 105.6 meq/L
DBIL [5]: 0.02 mg/dL
GLC [5]: 175.4 mg/dL
IP [5]: 5.9 mg/dL
K [5]: 4.1 meq/L
LDH [5]: 53.2 IU/L
Na [5]: 145 meq/L
PL [5]: 156.2 mg/dL
RALB [5]: 2.8 g/dL
TBIL [5]: 0.074 mg/dL
TC [5]: 70.2 mg/dL
TG [5]: 122.8 mg/dL
TP [5]: 6.2 g/dL
gamma-GTP [5]: 1 IU/L
TERMINAL_BW [6]: 201.2 g
Bas [6]: 0%
Eos [6]: 0.8%
Fbg [6]: 283.2 mg/dL
Hb [6]: 12.6 g/dL
Ht [6]: 37.2%
Lym [6]: 69.4%
MCH [6]: 19.9 pg
MCHC [6]: 33.9%
MCV [6]: 58.8 fL
Mono [6]: 3.2%
Neu [6]: 26%
PT [6]: 13.3 s
Plat [6]: 131.8 x10_4/uL
RBC [6]: 633.4 x10_4/ul
Ret [6]: 1.5%
WBC [6]: 108.7 x10_2/uL
KIDNEY_L [6]: 1 g
KIDNEY_R [6]: 0.9 g
KIDNEY_TOTAL [6]: 1.9 g
LIVER [6]: 11 g
ALP [6]: 1479.6 IU/L
ALT [6]: 43.2 IU/L
AST [6]: 73.6 IU/L
BUN [6]: 17.8 mg/dL
CRE [6]: 0.2 mg/dL
Ca [6]: 11 mg/dL
DBIL [6]: 0.024 mg/dL
GLC [6]: 154.6 mg/dL
IP [6]: 6.3 mg/dL
K [6]: 4.4 meq/L
LDH [6]: 77.6 IU/L
Na [6]: 143.8 meq/L
PL [6]: 202.4 mg/dL
RALB [6]: 2.7 g/dL
TBIL [6]: 0.092 mg/dL
TC [6]: 111.8 mg/dL
TG [6]: 87.4 mg/dL
TP [6]: 5.9 g/dL
gamma-GTP [6]: 1.4 IU/L
TERMINAL_BW [7]: 234.8 g
TERMINAL_BW [8]: 283.3 g
TERMINAL_BW [9]: 363.6 g
APTT [7]: 22.5 s
Bas [7]: 0.4%
Eos [7]: 0.4%
Fbg [7]: 319.6 mg/dL
Ht [7]: 33.4%
Lym [7]: 62.2%
MCH [7]: 22.7 pg
MCHC [7]: 31.2%
MCV [7]: 72.7 fL
Mono [7]: 3%
Neu [7]: 33.4%
PT [7]: 13.6 s
Plat [7]: 156.2 x10_4/uL
RBC [7]: 463.8 x10_4/ul
Ret [7]: 17.7%
WBC [7]: 178.5 x10_2/uL
APTT [8]: 19 s
Bas [8]: 0.2%
Eos [8]: 0.8%
Fbg [8]: 263.6 mg/dL
Ht [8]: 43.1%
Lym [8]: 72%
MCH [8]: 25.1 pg
MCHC [8]: 32%
MCV [8]: 78.4 fL
Mono [8]: 3.2%
Neu [8]: 23.6%
PT [8]: 13.7 s
Plat [8]: 108.2 x10_4/uL
RBC [8]: 550.4 x10_4/ul
WBC [8]: 119.8 x10_2/uL
APTT [9]: 18.1 s
Bas [9]: 0%
Eos [9]: 1%
Fbg [9]: 251.2 mg/dL
Hb [9]: 13.7 g/dL
Lym [9]: 66.8%
MCH [9]: 24.3 pg
MCHC [9]: 33.3%
MCV [9]: 72.8 fL
Mono [9]: 3.2%
Neu [9]: 28.4%
Plat [9]: 106.4 x10_4/uL
RBC [9]: 566.6 x10_4/ul
Ret [9]: 11.5%
WBC [9]: 134.5 x10_2/uL
KIDNEY_L [7]: 1.1 g
KIDNEY_R [7]: 1.1 g
KIDNEY_TOTAL [7]: 2.2 g
KIDNEY_L [8]: 1.3 g
KIDNEY_R [8]: 1.3 g
KIDNEY_TOTAL [8]: 2.5 g
KIDNEY_L [9]: 1.5 g
KIDNEY_R [9]: 1.5 g
KIDNEY_TOTAL [9]: 3 g
LIVER [7]: 11.9 g
LIVER [8]: 13.2 g
ALP [7]: 1794.2 IU/L
ALT [7]: 46.4 IU/L
AST [7]: 73.2 IU/L
BUN [7]: 16 mg/dL
CRE [7]: 0.2 mg/dL
Ca [7]: 11 mg/dL
Cl [7]: 104.8 meq/L
DBIL [7]: 0.04 mg/dL
GLC [7]: 167.4 mg/dL
IP [7]: 5.9 mg/dL
K [7]: 4.5 meq/L
LDH [7]: 81.4 IU/L
Na [7]: 144 meq/L
PL [7]: 172.4 mg/dL
RALB [7]: 2.7 g/dL
TBIL [7]: 0.2 mg/dL
TC [7]: 75.6 mg/dL
TG [7]: 160 mg/dL
TP [7]: 6 g/dL
gamma-GTP [7]: 1.2 IU/L
ALP [8]: 1457 IU/L
ALT [8]: 43.2 IU/L
AST [8]: 68 IU/L
CRE [8]: 0.2 mg/dL
Ca [8]: 10.8 mg/dL
Cl [8]: 103.8 meq/L
DBIL [8]: 0.036 mg/dL
GLC [8]: 168.8 mg/dL
IP [8]: 6.2 mg/dL
K [8]: 4.5 meq/L
LDH [8]: 154 IU/L
Na [8]: 143.2 meq/L
PL [8]: 176.6 mg/dL
RALB [8]: 2.7 g/dL
TBIL [8]: 0.1 mg/dL
TC [8]: 81.6 mg/dL
TG [8]: 171.4 mg/dL
TP [8]: 5.9 g/dL
gamma-GTP [8]: 1.4 IU/L
ALP [9]: 1375.4 IU/L
ALT [9]: 51.4 IU/L
AST [9]: 72.2 IU/L
BUN [9]: 21.4 mg/dL
CRE [9]: 0.3 mg/dL
Ca [9]: 10.8 mg/dL
Cl [9]: 102.8 meq/L
DBIL [9]: 0.038 mg/dL
GLC [9]: 157 mg/dL
IP [9]: 6.6 mg/dL
K [9]: 4.4 meq/L
LDH [9]: 70.8 IU/L
Na [9]: 145.2 meq/L
PL [9]: 171 mg/dL
RALB [9]: 2.8 g/dL
TBIL [9]: 0.1 mg/dL
TC [9]: 81.2 mg/dL
TG [9]: 125.6 mg/dL
TP [9]: 6.3 g/dL
gamma-GTP [9]: 1.2 IU/L
